These results are taken from US12686676B2, “Compound, endothelin-A receptor antagonist, and pharmaceutical composition” (Alchemedicine, Inc., priority 2021, dated 2026).

Series [1] concerns the target T1, human endothelin B receptor (Homo sapiens, UniProt P24530).
T1 construct: expressed in transfected cells; host or cells: CHO-K1-mt aequorin cells
T1 sequence (P24530 27-442): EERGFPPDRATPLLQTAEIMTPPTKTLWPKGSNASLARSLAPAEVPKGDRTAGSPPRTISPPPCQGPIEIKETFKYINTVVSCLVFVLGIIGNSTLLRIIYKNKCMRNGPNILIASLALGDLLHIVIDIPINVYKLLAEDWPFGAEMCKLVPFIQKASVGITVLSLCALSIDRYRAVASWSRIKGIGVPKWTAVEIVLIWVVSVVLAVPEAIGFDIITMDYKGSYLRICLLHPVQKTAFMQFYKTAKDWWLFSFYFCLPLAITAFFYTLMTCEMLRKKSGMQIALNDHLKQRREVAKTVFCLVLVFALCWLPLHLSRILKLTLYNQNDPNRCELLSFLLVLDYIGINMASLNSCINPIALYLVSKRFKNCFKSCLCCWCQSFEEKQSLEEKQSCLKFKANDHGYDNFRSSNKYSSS
Nature of the series: Endothelin B receptor inhibitory effect (aequorin light emission, endothelin at EC80). It is filed as cell-based. Conditions: CHO-K1-mt aequorin cells expressing human endothelin B receptor; endothelin at EC80; read-out: ETB receptor inhibitory effect. How it is done:
The inhibitory effect on an endothelin B receptor was studied by the following method.
CHO-K1-mt aequorin cells forced to express a human endothelin B receptor (Accession Number NP_000106.1) were cultured in an antibiotic-free medium for 18 hours, then treated with PBS-EDTA (5 mM EDTA), centrifuged (2 min, 405×g, room temperature), and then suspended in an assay buffer (DMEM/HAM's F12 with HEPES+0.1% BSA protease free).
(§1) 1×10^6 cells/mL of the cells were incubated at room temperature for 4 hours in the presence of coelenterazine h (Molecular Probes, Inc.) (final concentration: 5 µM). Agonistic reaction based on endothelin was confirmed to determine an endothelin concentration corresponding to EC80.
Subsequently, 50 µL (10000 cells/well) of the cell suspension treated with coelenterazine h and 50 µL of an assay buffer containing a test substance (final concentration: 0.5% in DMSO) were added to each well of a 96-well plate. 15 minutes later, endothelin was added such that its final concentration was an EC80 concentration. Receptor activity was measured as the quantity of light emission in FDSS6000 (Hamamatsu Photonics K.K.).

Series [2] concerns the target T2, human endothelin A receptor (Homo sapiens, UniProt P25101).
T2 construct: expressed in transfected cells; host or cells: CHO-K1-mt aequorin cells
T2 sequence (P25101 21-427): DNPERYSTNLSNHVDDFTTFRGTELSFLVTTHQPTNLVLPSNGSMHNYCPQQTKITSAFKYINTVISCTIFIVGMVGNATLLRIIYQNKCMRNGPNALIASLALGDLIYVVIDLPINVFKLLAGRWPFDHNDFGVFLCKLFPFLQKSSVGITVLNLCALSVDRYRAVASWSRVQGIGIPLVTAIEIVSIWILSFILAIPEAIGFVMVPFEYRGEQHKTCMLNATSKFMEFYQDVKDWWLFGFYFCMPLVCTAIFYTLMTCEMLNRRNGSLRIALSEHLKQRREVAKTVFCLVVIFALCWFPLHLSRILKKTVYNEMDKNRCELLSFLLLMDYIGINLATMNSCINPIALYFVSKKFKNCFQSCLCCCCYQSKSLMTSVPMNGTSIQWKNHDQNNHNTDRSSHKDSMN
Put plainly: Endothelin A receptor inhibitory effect (aequorin light emission, endothelin at EC80). It is filed as cell-based. Conditions: for IC50: CHO-K1-mt aequorin cells expressing human endothelin A receptor, endothelin at EC80, read-out: ETA receptor inhibitory effect; for ETA selectivity (ETB/ETA): ETB IC50 value/ETA IC50 value. How it is done:
The inhibitory effect on an endothelin A receptor was studied by the following method.
CHO-K1-mt aequorin cells forced to express a human endothelin A receptor (Accession Number NP_001948.1) were cultured in an antibiotic-free medium for 18 hours, then treated with PBS-EDTA (5 mM EDTA), centrifuged (2 min, 405×g, room temperature), and then suspended in an assay buffer (DMEM/HAM's F12 with HEPES+0.1% BSA protease free).
as §1
Subsequently, 50 µL (10000 cells/well) of the cell suspension treated with coelenterazine h and 50 µL of an assay buffer containing a test substance (final concentration: 0.5% in DMSO) were added to each well of a 96-well plate. 15 minutes later, endothelin was added such that its final concentration was an EC80 concentration. Receptor activity was measured as the quantity of light emission in FDSS6000 (Hamamatsu Photonics K.K.). IC50 values were calculated using XLfit (ID Business Solutions Ltd. (IDBS)).

The target of the next series is T3, CYP2C9 (Homo sapiens, UniProt P11712).
T3 construct: A frozen liver microsome fraction was thawed on ice; from tissue; host or cells: liver microsome fraction
Put plainly: CYP2C9 inhibitory effect (liver microsome fraction, diclofenac substrate). It is filed as in vitro ADME. To be noted: liver microsome fraction 0.5 mg/mL, diclofenac 2.5 μM. How it is done:
The inhibitory effect on CYP2C9 was evaluated by the following method. • (1) A frozen liver microsome fraction was thawed on ice and diluted with a potassium phosphate buffer (PPB) to a final concentration of 0.5 mg/mL. • (2) A substrate for evaluation (diclofenac: D6899 from Sigma-Aldrich Co. LLC) was added thereto such that its final concentration was 2.5 μM. • (3) The mixture was slowly mixed and incubated at 37±1° C. for 5 minutes to prepare a reaction solution. • (4) 801 μL of the reaction solution was dispensed to each tube, and an evaluation compound serially diluted with 0.9 μL of DMSO was added thereto such that its final concentration was 9.1 to 20000 nM (⅓ dilutions with 8 concentrations). In this context, 0.9 μL of DMSO was added to a negative control group, and 0.9 μL of sulfaphenazole (S0758 from Sigma-Aldrich Co. LLC) adjusted to a final concentration of 1 μM with DMSO was added to a positive control group. • (5) After mixing, a 270 μL aliquot was transferred to each of two fresh tubes and incubated in a shaking water bath at 37±1° C. for 5 minutes. • (6) Reaction was started by the addition of 30 μL of 10 mM NADPH, and the tubes were incubated at 37° C.±1° C. for 10 minutes. • (7) The tubes were taken out of the shaking water bath, and the reaction was terminated by the addition of 300 μL of a reaction stop solution. After mixing, the tubes were centrifuged at 1021×g at 4° C. for 20 minutes. • (8) The amount of the substrate for evaluation metabolized was determined by LC-MS/MS to calculate the rate of inhibition at each concentration of the evaluation compound. • (9) IC50 values were calculated using GraphPad Prism5. A sample having an IC50 value of 1 μM or lower was given “++”; a sample having an IC50 value in the range of higher than 1 μM and 10 μM or lower was given “+”; and a sample having an IC50 value of higher than 10 μM was given “−”.

The target of a further series is T4, ETA receptor (Homo sapiens, UniProt P25101).
T4 sequence (P25101 21-427): T2 sequence (P25101 21-427)
To be noted: cited from earlier work.

The conditions of series [3]: in vivo; cited from earlier work.
For series [4] the following is noted: in vivo; cited from earlier work. The source holds these as a separate data set.
The conditions of series [5]: pulmonary hypertension associated with connective tissue disease; cited from earlier work.

The structures appear in SMILES notation.

T3 sequence (P11712 whole entry): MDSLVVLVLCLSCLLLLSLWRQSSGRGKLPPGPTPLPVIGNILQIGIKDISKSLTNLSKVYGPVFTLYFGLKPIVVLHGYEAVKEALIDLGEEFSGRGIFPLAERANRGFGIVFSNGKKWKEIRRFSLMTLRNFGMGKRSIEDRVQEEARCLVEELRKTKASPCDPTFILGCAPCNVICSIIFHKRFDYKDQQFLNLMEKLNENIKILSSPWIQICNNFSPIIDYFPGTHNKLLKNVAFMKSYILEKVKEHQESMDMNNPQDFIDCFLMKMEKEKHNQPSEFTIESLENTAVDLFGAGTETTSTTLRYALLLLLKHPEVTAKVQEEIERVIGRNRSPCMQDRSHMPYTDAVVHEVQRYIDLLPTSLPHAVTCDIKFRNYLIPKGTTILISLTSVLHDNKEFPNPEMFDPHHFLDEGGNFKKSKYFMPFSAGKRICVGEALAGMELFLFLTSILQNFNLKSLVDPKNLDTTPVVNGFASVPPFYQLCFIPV

For the compound `Cc1cc2c(cc1C#Cc1ncccc1S(=O)(=O)Nc1noc(C)c1C)COC2C` (centres unmarked) [Example 11, 2-((1,6-Dimethyl-1,3-dihydroisobenzofuran-5-yl)ethynyl)-N-(4,5-dimethylisoxazol-3-yl)pyridine-3-sulfonamide], the IC50 in series [1] was over 5000 nM; in series [2], 1 to 10 nM.

Consider `Cc1cc2c(cc1C#Cc1ncccc1S(=O)(=O)Nc1noc(C)c1C)C(C)OC2` (centres unmarked) [Example 2, 2-((3,6-Dimethyl-1,3-dihydroisobenzofuran-5-yl)ethynyl)-N-(4,5-dimethylisoxazol-3-yl)pyridine-3-sulfonamide], for which the IC50 in series [1] is over 5000 nM. In addition, in series [2], the IC50 is at most 1 nM and the “ETA selectivity (ETB/ETA)” value was “++ (ETB IC50 value/ETA IC50 value of higher than 5000)”.

As for `Cc1cc2c(cc1CC(=O)c1sccc1S(=O)(=O)Nc1onc(C)c1Cl)COC2` [Comparative Example 2, reference compound], the IC50 on CYP2C9 is at most 1000 nM; in series [1], over 5000 nM; in series [2] it was at most 1 nM. Besides, the “ETA selectivity (ETB/ETA)” value in series [2] is “++ (ETB IC50 value/ETA IC50 value of higher than 5000)”.

For the compound `Cc1cc2c(cc1CC(=O)c1sccc1S(=O)(=O)Nc1onc(C)c1Cl)OCO2` [Comparative Example 1, sitaxentan, reference compound], the “Selective inhibition of ETA receptor in contrast to ETB receptor” value on ETA receptor is reported as “selectively inhibit the ETA receptor”. Also, the IC50 on CYP2C9 is at most 1000 nM; in series [1] it was over 5000 nM; in series [2], 1 to 10 nM. Further, in series [3], the Peripheral edema entry was “not cause peripheral edema”. In addition, the “Effect on endothelin concentrations in blood” value in series [4] is “not increase endothelin concentrations in blood”. The “ETA selectivity (ETB/ETA)” value in series [2] is “++ (ETB IC50 value/ETA IC50 value of higher than 5000)”. For the same compound, the “Drug efficacy in clinical trials” value in series [5] is listed as “significant drug efficacy”.
